# Assay results published in US7405240B2, “Substituted cyclopentanes or cyclopentanones as therapeutic agents” (Allergan, Inc., priority 2006, dated 2008).
# Columns and labels:
# hEP2 [1] = biological target: T1, hEP2 (Homo sapiens, UniProt P43116); experiment: cAMP assay, hEP2; format: cell-based
# normotensive dogs = experiment: Intraocular pressure and ocular surface hyperemia in normotensive dogs; format: in vivo, dog; design: maximum OSH score: scale not given here; conditions: once daily for 5 days
# Experimental: (§1) (Z)-7-[(1R,2S,3R,5R)-5-Chloro-2-(3,5-dichloro-phenoxymethyl)-3-hydroxy-cyclopentyl]-hept-5-enoic acid (15b) was tested at multiple concentrations in normotensive dogs, dosing once daily for 5 days. At 0.05%, the maximum IOP decrease from baseline was 4.3 mmHg (30%) at 6 h; the maximum OSH score was 0.6 at 6 h. […] This compound was also tested in laser-induced hypertensive monkeys, using one single day dose. At 0.1%, the maximum IOP decrease from baseline was 6 mmHg (19%) at 6 h.
# (§2) (Z)-7-[(1R,2S,3R,5R)-5-Chloro-2-(3,5-dichloro-phenoxymethyl)-3-hydroxy-cyclopentyl]-hept-5-enoic acid isopropyl ester (42b) was tested in normotensive dogs at 0.05%, dosing once daily for 5 days. The maximum intraocular pressure (IOP) decrease from baseline was 3 mmHg (19%) at 6 h; the maximum ocular surface hyperemia (OSH) score was 0.6 at 74 h. This compound was also tested in laser-induced hypertensive monkeys, using one single day dose. At 0.01%, the maximum IOP decrease from baseline was 6 mmHg (16%) at 6 h.
# [2] = test system: laser-induced hypertensive monkeys; experiment: Intraocular pressure in laser-induced hypertensive monkeys; format: in vivo, monkey; conditions: one single day dose
# Experimental: as §1, §2
# hEP2 [3] = biological target: T1, hEP2; experiment: Competition binding, [3H]PGE2, human EP2 receptors; design: expressed in transfected cells; host or cells: HEK 293; conditions: [3H]PGE2, HEK 293 cells stably expressing human EP2; read-out: hEP2 Ki
# Procedure, shortened: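 HEK 293 membranes or cells stably expressing human EP2 were incubated with 10 nM [3H]PGE2 and test compound in HBSS/20 mM Hepes pH 7.3, 60 min at 23° C, then filtered. Non-specific binding defined with 10 μM PGE2; IC50 from single-site fit converted to Ki using KD 40 nM.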
# hEP4 [4] = biological target: T2, hEP4 (Homo sapiens, UniProt P35408); experiment: Radioligand binding, EP4 receptor; design: expressed in transfected cells; host or cells: HEK-293; conditions: [3H]PGE2, HEK-293 cells expressing EP4
# Procedure, shortened: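 HEK-293 membranes stably expressing human EP4, in TME buffer pH 7.4; competition vs 5 nM [3H]-PGE2, 60 min at 25 °C, stopped by GF/B filtration. Non-specific binding defined with 10^−5 M unlabeled PGE2; duplicates, at least three experiments.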
# hEP2 [5] = biological target: T1, hEP2; experiment: FLIPR calcium signal, hEP2; format: cell-based; design: expressed in transfected cells; host or cells: HEK-293(EBNA); conditions: HEK-293(EBNA) cells expressing hEP2/Gqs5
# Procedure, shortened: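 HEK-293(EBNA) cells stably expressing a single human prostaglandin receptor (hDP/Gqs5 chimera for DP), Fluo-4 AM loaded, in HBSS-HEPES pH 7.4 at 37 °C. Peak calcium fluorescence scaled to buffer and receptor standard agonist; 10^−5 M single-point or 10^−5–10^−11 M curves, duplicates, n≥3.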
# hEP4 [6] = biological target: T2, hEP4; experiment: FLIPR calcium signal, hEP4; format: cell-based; design: expressed in transfected cells; host or cells: HEK-293(EBNA); conditions: HEK-293(EBNA) cells expressing hEP4/Gqs5
# Experimental: Methods for FLIPR™ Studies
# HEK-293(EBNA) cells, stably expressing one type or subtype of recombinant human prostaglandin receptors (prostaglandin receptors expressed: hDP/Gqs5; hEP1; hEP2/Gqs5; hEP3A/Gqi5; hEP4/Gqs5; hFP; hIP; hTP), were cultured in 100 mm culture dishes in high-glucose DMEM medium containing 10% fetal bovine serum, 2 mM 1-glutamine, 250 μg/ml geneticin (G418) and 200 μg/ml hygromycin B as selection markers, and 100 units/ml penicillin G, 100 μg/ml streptomycin and 0.25 μg/ml amphotericin B.
# Cells were seeded at a density of 5×10^4 cells per well in Biocoat® Poly-D-lysine-coated black-wall, clear-bottom 96-well plates (Becton-Dickinson) and allowed to attach overnight in an incubator at 37° C. Cells were then washed two times with HBSS-HEPES buffer (Hanks Balanced Salt Solution without bicarbonate and phenol red, 20 mM HEPES, pH 7.4) using a Denley Cellwash plate washer (Labsystems). After 45 minutes of dye-loading in the dark, using the calcium-sensitive dye Fluo-4 AM at a final concentration of 2 μM, plates were washed four times with HBSS-HEPES buffer to remove excess dye leaving 100 μl in each well. Plates were re-equilibrated to 37° C. for a few minutes.
# Cells were excited with an Argon laser at 488 nm, and emission was measured through a 510-570 nm bandwidth emission filter (FLIPR™, Molecular Devices, Sunnyvale, Calif.). Drug solution was added in a 50 μl volume to each well to give the desired final concentration. The peak increase in fluorescence intensity was recorded for each well. On each plate, four wells each served as negative (HBSS-HEPES buffer) and positive controls (standard agonists: BW245C (hDP); PGE2 (hEP1; hEP2/Gqs5; hEP3A/Gqi5; hEP4/Gqs5); PGF2α (hFP); carbacyclin (hIP); U-46619 (hTP), depending on receptor). The peak fluorescence change in each drug-containing well was then expressed relative to the controls.
# Compounds were tested in a high-throughput (HTS) or concentration-response (CoRe) format. In the HTS format, forty-four compounds per plate were examined in duplicates at a concentration of 10^−5 M. To generate concentration-response curves, four compounds per plate were tested in duplicates in a concentration range between 10^−5 and 10^−11 M. The duplicate values were averaged. In either, HTS or CoRe format each compound was tested on at least 3 separate plates using cells from different passages to give an n≧3.
# [7] = Canis lupus familiaris, topical, 120 h, 0.1%, read-out: maximum IOP decrease from baseline
# [8] = Primates, topical, 0.1%, read-out: maximum IOP decrease from baseline
# [9] = Canis lupus familiaris, topical, 120 h, 0.05%, read-out: maximum IOP decrease from baseline
# T2 sequence (P35408 whole entry): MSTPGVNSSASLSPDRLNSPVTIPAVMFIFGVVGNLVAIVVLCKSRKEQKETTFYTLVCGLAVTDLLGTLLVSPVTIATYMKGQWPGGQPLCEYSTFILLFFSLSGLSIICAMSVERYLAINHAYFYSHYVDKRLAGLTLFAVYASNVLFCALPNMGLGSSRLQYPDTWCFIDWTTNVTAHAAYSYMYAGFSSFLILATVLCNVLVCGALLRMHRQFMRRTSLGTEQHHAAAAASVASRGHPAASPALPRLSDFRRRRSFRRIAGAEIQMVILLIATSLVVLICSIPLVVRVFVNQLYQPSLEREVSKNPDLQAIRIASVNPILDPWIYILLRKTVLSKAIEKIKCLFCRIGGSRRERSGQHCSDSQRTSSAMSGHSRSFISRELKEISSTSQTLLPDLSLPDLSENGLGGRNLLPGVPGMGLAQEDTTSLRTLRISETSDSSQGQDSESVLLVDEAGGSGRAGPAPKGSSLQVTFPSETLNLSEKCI
# T1 sequence (P43116 whole entry): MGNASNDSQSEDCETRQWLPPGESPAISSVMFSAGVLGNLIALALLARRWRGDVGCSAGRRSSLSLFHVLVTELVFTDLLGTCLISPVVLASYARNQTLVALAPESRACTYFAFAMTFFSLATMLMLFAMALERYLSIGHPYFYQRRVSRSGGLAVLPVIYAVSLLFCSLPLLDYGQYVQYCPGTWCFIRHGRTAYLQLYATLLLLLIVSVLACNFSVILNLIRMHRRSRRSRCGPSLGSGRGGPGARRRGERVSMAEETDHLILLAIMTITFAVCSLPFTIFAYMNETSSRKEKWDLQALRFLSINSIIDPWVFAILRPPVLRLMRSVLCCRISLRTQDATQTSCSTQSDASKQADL
Compound,EC50 (hEP2 [1]) [µM],maximum IOP decrease from baseline (normotensive dogs; 0.1%) [mmHg],maximum OSH score (normotensive dogs; 0.1%),time of maximum IOP decrease (normotensive dogs; 0.1%) [h],time of maximum OSH score (normotensive dogs; 0.1%) [h],change in vivo at 0.1 % (normotensive dogs; [7]) [%],maximum IOP decrease from baseline ([2]; 0.1%) [mmHg],time of maximum IOP decrease ([2]; 0.1%) [h],"change in vivo at 0.1 % [2, 8] [%]",Ki (hEP2 [3]) [µM],Ki (hEP4 [4]) [µM],EC50 (hEP2 [5]) [µM],other results
"O=C(O)CCC/C=C\C[C@@H]1[C@@H](COc2ccc(CO)cc2)[C@H](O)C[C@H]1Cl [Example 43, (Z)-7-[(1R,2S,3R,5R)-5-Chloro-3-hydroxy-2-(4-hydroxymethyl-phenoxymethyl)-cyclopentyl]-hept-5-enoic acid]",0.005,2.8,0.6,98,98,20,2,6,6,0.993,> 10,0.044,–
"CC(C)OC(=O)CCC/C=C\C[C@@H]1[C@@H](COc2cc(C(F)(F)F)cc(C(F)(F)F)c2)[C@H](O)C[C@H]1Cl [Example 42c, (Z)-7-[(1R,2S,3R,5R)-2-(3,5-Bis-trifluoromethyl-phenoxymethyl)-5-chloro-3-hydroxy-cyclopentyl]-hept-5-enoic acid isopropyl ester]",–,–,–,–,–,–,–,–,–,–,–,–,"maximum IOP decrease from baseline (normotensive dogs; 0.03%): 2.3 mmHg; maximum OSH score (normotensive dogs; 0.03%): 0.7; time of maximum IOP decrease (normotensive dogs; 0.03%): 100 h; time of maximum OSH score (normotensive dogs; 0.03%): 78 h; change in vivo at 0.03 % (normotensive dogs; Canis lupus familiaris, topical, 120 h, 0.03%, read-out: maximum IOP decrease from baseline): 14%; maximum IOP decrease from baseline ([2]; 0.03%): 4 mmHg; time of maximum IOP decrease ([2]; 0.03%): 6 h; change in vivo at 0.03 % ([2]; Primates, topical, 0.03%, read-out: maximum IOP decrease from baseline): 11%"
"CC(C)OC(=O)CCC/C=C\C[C@@H]1[C@@H](COc2cc(Cl)cc(Cl)c2)[C@H](O)C[C@H]1Cl [Example 42b, (Z)-7-[(1R,2S,3R,5R)-5-Chloro-2-(3,5-dichloro-phenoxymethyl)-3-hydroxy-cyclopentyl]-hept-5-enoic acid isopropyl ester]",–,–,–,–,–,–,–,–,–,–,–,–,"maximum IOP decrease from baseline (normotensive dogs; 0.05%): 3 mmHg; maximum OSH score (normotensive dogs; 0.05%): 0.6; time of maximum IOP decrease (normotensive dogs; 0.05%): 6 h; time of maximum OSH score (normotensive dogs; 0.05%): 74 h; change in vivo at 0.05 % (normotensive dogs; [9]): 19%; maximum IOP decrease from baseline ([2]; 0.01%): 6 mmHg; time of maximum IOP decrease ([2]; 0.01%): 6 h; change in vivo at 0.01 % ([2]; Primates, topical, 0.01%, read-out: maximum IOP decrease from baseline): 16%"
"O=C(O)CCC/C=C\C[C@@H]1[C@@H](COc2cc(Cl)cc(Cl)c2)[C@H](O)C[C@H]1Cl [Example 15b, (Z)-7-[(1R,2S,3R,5R)-5-Chloro-2-(3,5-dichloro-phenoxymethyl)-3-hydroxy-cyclopentyl]-hept-5-enoic acid]",–,4.8,1.3,102,6,34,6,6,19,–,–,–,maximum IOP decrease from baseline (normotensive dogs; 0.05%): 4.3 mmHg; maximum OSH score (normotensive dogs; 0.05%): 0.6; time of maximum IOP decrease (normotensive dogs; 0.05%): 6 h; time of maximum OSH score (normotensive dogs; 0.05%): 6 h; change in vivo at 0.05 % (normotensive dogs; [9]): 30%
"CC(C)OC(=O)CCC/C=C\C[C@@H]1[C@@H](COc2ccc(CO)cc2)[C@H](O)C[C@H]1Cl [Example 42bb, (Z)-7-[(1R,2S,3R,5R)-5-Chloro-3-hydroxy-2-(4-hydroxymethyl-phenoxymethyl)-cyclopentyl]-hept-5-enoic acid isopropyl ester]",–,4.6,0.6,100,30,33,5.5,6,16,–,–,–,–
"O=C(O)CCC/C=C\C[C@@H]1[C@@H](COc2cccc3c2CCCC3O)[C@H](O)C[C@H]1Cl (stereo partly drawn) [Example 60, (Z)-7-[(1R,2S,3R,5R)-5-Chloro-3-hydroxy-2-(5-hydroxy-5,6,7,8-tetrahydro-naphthalen-1-yloxymethyl)-cyclopentyl]-hept-5-enoic acid]",0.001,–,–,–,–,–,–,–,–,0.086,1.44,0.017,EC50 (hEP4 [6]): 6.97 µM
"Cc1cc(C)cc(OC[C@@H]2[C@@H](C/C=C\CCCC(=O)OC(C)C)[C@H](Cl)C[C@H]2O)c1 [Example 42u, (Z)-7-[(1R,2S,3R,5R)-5-Chloro-2-(3,5-dimethyl-phenoxymethyl)-3-hydroxy-cyclopentyl]-hept-5-enoic acid isopropyl ester]",–,4.3,0.9,30,74,30,8,6,23,–,–,–,–
"Cc1cc(OC[C@@H]2[C@@H](C/C=C\CCCC(=O)O)[C@H](Cl)C[C@H]2O)cc(C)c1C [Example 38, (Z)-7-[(1R,2S,3R,5R)-5-Chloro-3-hydroxy-2-(3,4,5-trimethyl-phenoxymethyl)-cyclopentyl]-hept-5-enoic acid]",0.0015,–,–,–,–,–,–,–,–,0.025,0.606,0.0023,EC50 (hEP4 [6]): > 10 µM
"CC(C)OC(=O)CCC/C=C\C[C@@H]1[C@@H](COc2cccc(C(F)(F)F)c2)[C@H](O)C[C@H]1Cl [Example 42i, (Z)-7-[(1R,2S,3R,5R)-5-Chloro-3-hydroxy-2-(3-trifluoromethyl-phenoxymethyl)-cyclopentyl]-hept-5-enoic acid isopropyl ester]",–,2.7,0.6,2,50,19,4.7,6,14,–,–,–,–
